Results on three molecules are retold here after patent publication US4835155A, “Process for protection of brain cells” (Nippon Chemiphar Co., Ltd., priority 1986, dated 1989).

Where a name gives a salt, the structure may show the parent alone.

Data set [1] is described as follows: Acute toxicity, oral, observed for seven days. The following applies: in vivo, ddN male mouse about 20 g.
For data set [2] the following is noted: pentobarbital acts nonselectively; cited from earlier work.
The subject of data set [3] is brain cells (delayed neuronal damage). The following applies: Kirino et al., Progress in Brain Research, vol. 63: 39-58 (1985); cited from earlier work.

Consider `COc1cc(C(O)CN2CCN(C(c3ccccc3)c3ccccc3)CC2)cc(OC)c1OC` (stereo not shown) [B, 2(4-diphenylmethylpiperazinyl)-1-(3,4,5-trimethoxyphenyl)ethanol monohydrochloride], for which the LD50 at 168 h in data set [1] was over 2000 mg/kg.
Still for that read-out and setting: to `Oc1ccc(C(O)CN2CCN(C(c3ccccc3)c3ccccc3)CC2)cc1` (stereo not shown) [C, 2(4-diphenylmethylpiperazinyl)-1-(4-hydroxyphenyl)ethanol monohydrochloride] belongs over 2000 mg/kg.
For the molecule `CCCC(C)C1(CC)C(=O)NC(=O)NC1=O` (stereo not shown) [pentobarbital], in data set [2], the “Action on central nervous system” value is given as “the action of central nervous system is also strongly subsided”. In addition, the “Effect of protection of brain cells / suppression of delayed neuronal damage” value in data set [3] was “markedly suppress the above-mentioned delayed neuronal damage”.
